For assay [1], the target named is T1, TGF-beta receptor type-1 (Homo sapiens) (UniProt P36897).
T1 sequence (whole entry): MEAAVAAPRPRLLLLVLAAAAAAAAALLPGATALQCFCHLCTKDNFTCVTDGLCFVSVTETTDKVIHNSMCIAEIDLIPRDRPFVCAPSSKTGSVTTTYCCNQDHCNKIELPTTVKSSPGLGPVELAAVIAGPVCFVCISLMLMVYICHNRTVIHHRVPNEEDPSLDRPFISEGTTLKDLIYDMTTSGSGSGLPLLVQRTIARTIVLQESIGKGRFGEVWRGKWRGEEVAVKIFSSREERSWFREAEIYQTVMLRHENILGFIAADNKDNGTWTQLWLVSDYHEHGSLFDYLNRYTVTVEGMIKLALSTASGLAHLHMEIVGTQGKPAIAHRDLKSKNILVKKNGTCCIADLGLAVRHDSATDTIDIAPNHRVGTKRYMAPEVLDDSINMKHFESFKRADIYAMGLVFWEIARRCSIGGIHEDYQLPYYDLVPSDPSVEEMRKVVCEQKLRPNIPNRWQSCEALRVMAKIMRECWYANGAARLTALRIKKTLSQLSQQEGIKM
The experiment in a line: Inhibition of TGFBR1 in human NCI-H929 cells at 10 uM by mass spectroscopic analysis relative to control. Type of assay: cell-based.

The subject of another assay is MAP4K2 (Homo sapiens). As to the kind of experiment: Inhibition of GCK in human NCI-H929 cells at 10 uM by mass spectroscopic analysis relative to control.
Assay [2] deals with T2, Tyrosine-protein kinase Mer (Homo sapiens) (UniProt Q12866).
T2 sequence (whole entry): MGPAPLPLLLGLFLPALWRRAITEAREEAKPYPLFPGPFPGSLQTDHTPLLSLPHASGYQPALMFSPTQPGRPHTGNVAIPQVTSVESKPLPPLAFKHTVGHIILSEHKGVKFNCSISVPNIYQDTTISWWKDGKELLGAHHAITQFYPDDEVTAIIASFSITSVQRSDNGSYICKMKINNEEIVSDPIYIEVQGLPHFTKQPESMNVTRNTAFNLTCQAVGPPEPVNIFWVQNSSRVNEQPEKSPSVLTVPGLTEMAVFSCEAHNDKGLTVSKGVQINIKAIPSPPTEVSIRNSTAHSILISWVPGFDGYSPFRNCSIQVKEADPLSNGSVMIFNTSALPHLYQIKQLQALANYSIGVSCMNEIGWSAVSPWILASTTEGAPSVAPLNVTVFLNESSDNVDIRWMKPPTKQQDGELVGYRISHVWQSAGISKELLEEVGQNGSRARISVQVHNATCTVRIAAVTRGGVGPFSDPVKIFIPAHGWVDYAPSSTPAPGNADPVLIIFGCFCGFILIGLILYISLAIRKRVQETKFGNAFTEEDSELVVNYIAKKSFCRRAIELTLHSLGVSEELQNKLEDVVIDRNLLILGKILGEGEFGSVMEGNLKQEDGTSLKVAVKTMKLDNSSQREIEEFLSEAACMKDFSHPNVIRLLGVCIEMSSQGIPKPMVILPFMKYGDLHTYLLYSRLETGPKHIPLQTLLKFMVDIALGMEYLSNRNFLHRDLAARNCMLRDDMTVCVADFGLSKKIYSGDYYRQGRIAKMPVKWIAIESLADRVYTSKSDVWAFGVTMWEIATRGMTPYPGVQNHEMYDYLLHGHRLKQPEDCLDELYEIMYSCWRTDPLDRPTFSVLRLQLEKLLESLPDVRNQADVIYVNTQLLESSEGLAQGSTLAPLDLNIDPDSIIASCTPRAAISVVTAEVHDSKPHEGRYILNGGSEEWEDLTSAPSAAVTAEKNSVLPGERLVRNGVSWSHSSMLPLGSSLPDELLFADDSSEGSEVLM
As to the kind of experiment: Inhibition of MER in human NCI-H929 cells at 10 uM by mass spectroscopic analysis relative to control. It counts as cell-based.

For assay [3], the target named is T3, Aurora kinase C (Homo sapiens) (UniProt Q9UQB9).
T3 sequence (whole entry): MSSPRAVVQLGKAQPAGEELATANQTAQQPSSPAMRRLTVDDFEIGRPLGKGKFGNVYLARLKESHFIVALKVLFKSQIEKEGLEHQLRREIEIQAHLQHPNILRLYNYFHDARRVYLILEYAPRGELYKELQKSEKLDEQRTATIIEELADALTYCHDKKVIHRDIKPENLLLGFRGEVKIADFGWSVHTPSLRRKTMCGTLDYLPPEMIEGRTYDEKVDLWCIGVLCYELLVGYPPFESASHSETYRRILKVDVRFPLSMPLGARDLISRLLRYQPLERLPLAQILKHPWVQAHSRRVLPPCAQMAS
As to the kind of experiment: Inhibition of AURC in human NCI-H929 cells at 10 uM by mass spectroscopic analysis relative to control. It counts as cell-based.

The target in assay [4] is Cyclin-dependent kinase 18 (Homo sapiens) (UniProt Q07002). As to the kind of experiment: Inhibition of PCTAIRE3 in human NCI-H929 cells at 10 uM by mass spectroscopic analysis relative to control. It counts as cell-based.
Assay [5] addresses Calcium/calmodulin-dependent protein kinase kinase 2 (Homo sapiens) (UniProt Q96RR4). The experiment in a line: Inhibition of CAMKK2 in human NCI-H929 cells at 10 uM by mass spectroscopic analysis relative to control. Type of assay: cell-based.
Assay [6] addresses T4, Inhibitor of nuclear factor kappa-B kinase subunit epsilon (Homo sapiens) (UniProt Q14164).
T4 sequence (whole entry): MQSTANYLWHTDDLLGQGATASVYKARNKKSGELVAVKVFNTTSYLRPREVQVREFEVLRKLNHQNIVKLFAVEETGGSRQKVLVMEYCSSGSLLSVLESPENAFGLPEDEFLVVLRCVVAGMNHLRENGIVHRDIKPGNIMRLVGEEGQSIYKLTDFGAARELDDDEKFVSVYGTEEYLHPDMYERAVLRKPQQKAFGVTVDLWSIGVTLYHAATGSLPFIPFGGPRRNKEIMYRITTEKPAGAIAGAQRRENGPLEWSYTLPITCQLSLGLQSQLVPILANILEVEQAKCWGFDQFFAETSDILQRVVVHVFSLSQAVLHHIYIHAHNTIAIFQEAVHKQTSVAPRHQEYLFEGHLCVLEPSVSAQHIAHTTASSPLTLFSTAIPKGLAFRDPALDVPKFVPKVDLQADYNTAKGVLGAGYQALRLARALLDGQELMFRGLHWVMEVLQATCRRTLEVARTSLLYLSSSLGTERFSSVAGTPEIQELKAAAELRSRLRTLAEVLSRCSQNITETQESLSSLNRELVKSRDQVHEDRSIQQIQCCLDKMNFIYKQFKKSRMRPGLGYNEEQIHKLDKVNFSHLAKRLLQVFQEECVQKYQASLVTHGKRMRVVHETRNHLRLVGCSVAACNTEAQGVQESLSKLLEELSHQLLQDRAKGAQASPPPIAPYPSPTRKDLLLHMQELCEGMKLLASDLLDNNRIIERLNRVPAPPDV
The experiment in a line: Inhibition of IKKE in human NCI-H929 cells at 10 uM by mass spectroscopic analysis relative to control. Type of assay: cell-based.

The target of assay [7] is Microtubule-associated serine/threonine-protein kinase 2 (Homo sapiens) (UniProt Q6P0Q8). The experiment in a line: Inhibition of MAST2 in human NCI-H929 cells at 10 uM by mass spectroscopic analysis relative to control. Type of assay: cell-based.

These results are taken from ChEMBL document CHEMBL4804281, “STK4 inhibitors for treatment of hematologic malignancies” (2020).

Calcium/calmodulin-dependent protein kinase kinase 2 (Homo sapiens), sequence (Q96RR4 2-588 limits assumed): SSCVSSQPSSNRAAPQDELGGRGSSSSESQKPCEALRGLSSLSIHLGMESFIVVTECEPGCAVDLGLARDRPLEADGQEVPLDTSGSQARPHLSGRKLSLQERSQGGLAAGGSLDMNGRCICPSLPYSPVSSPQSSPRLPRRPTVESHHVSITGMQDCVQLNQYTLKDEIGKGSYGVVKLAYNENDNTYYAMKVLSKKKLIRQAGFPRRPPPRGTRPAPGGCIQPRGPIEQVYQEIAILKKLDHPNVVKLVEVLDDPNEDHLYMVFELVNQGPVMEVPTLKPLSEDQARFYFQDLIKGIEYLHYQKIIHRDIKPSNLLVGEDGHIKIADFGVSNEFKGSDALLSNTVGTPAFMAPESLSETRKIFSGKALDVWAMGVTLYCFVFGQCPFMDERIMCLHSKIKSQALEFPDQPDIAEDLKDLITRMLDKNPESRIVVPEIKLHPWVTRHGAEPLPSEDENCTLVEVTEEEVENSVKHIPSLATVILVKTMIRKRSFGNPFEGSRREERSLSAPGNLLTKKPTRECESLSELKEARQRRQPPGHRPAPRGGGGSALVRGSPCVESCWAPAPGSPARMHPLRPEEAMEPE
Microtubule-associated serine/threonine-protein kinase 2 (Homo sapiens), sequence (Q6P0Q8 whole entry): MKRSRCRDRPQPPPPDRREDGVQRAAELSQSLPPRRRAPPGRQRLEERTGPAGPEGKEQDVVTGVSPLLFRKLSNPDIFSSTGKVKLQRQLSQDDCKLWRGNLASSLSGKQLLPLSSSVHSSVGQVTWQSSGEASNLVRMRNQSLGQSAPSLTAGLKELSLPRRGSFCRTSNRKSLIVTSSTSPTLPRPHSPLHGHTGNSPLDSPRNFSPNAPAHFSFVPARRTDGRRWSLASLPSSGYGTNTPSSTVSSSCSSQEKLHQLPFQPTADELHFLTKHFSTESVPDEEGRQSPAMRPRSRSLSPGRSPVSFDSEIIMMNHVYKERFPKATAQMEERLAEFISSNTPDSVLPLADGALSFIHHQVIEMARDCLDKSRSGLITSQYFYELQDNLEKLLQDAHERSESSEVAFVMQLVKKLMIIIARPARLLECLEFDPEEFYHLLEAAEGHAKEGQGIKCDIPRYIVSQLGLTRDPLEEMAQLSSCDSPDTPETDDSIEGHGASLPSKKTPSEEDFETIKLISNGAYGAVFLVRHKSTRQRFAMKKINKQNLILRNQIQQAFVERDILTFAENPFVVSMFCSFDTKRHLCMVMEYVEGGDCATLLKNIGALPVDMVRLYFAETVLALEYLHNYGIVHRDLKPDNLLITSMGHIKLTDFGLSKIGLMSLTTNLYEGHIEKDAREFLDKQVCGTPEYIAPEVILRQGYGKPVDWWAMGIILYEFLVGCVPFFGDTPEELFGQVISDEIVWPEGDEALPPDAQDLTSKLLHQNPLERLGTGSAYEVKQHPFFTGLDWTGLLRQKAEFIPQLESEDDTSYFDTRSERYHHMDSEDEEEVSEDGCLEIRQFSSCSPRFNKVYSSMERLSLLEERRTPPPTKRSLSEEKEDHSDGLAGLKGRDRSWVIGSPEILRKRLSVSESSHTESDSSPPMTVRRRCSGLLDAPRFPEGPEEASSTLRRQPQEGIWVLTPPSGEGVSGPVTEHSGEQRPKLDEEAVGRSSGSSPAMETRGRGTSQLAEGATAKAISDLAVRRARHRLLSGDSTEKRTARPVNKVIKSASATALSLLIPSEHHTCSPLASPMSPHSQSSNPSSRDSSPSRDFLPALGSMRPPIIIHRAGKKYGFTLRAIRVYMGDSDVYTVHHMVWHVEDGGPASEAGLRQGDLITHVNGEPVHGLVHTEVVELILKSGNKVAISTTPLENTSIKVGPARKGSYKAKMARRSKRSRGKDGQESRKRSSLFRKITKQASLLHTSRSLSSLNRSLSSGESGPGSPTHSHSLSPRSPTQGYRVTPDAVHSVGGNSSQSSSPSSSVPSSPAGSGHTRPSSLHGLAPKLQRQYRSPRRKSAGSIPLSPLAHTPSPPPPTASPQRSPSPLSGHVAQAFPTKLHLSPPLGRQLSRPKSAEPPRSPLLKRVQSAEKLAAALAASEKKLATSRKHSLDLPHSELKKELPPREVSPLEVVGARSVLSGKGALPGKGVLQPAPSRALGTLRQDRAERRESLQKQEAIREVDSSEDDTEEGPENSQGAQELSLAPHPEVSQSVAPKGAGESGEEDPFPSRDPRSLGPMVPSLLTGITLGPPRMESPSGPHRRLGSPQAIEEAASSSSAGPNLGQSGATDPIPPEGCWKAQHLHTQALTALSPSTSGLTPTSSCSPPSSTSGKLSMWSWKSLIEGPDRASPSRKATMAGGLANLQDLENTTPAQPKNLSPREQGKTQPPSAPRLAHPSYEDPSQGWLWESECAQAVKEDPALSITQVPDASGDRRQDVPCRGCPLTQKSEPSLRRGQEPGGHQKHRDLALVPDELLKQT
Cyclin-dependent kinase 18 (Homo sapiens), sequence (Q07002 whole entry): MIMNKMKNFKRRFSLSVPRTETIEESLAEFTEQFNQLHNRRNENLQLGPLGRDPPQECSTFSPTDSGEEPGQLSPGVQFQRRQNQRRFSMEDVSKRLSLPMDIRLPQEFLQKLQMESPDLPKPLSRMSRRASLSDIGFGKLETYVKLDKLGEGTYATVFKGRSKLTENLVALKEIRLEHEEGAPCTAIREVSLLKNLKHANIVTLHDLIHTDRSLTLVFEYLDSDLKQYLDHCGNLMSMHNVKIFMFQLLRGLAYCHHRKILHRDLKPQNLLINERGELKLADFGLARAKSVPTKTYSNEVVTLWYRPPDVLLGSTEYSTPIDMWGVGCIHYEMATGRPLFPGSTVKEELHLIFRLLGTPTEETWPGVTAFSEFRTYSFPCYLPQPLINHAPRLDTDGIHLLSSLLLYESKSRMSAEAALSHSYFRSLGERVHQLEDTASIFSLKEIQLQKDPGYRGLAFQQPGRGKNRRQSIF

The term inhibition denotes the share of the control response that was lost under treatment. With `COc1cc(NS(=O)(=O)C2CC2)ccc1-c1cnc(N)c(-c2ccc3c(c2)CCNC3=O)c1`, the inhibition in assay [1] was 75%; with MAP4K2 (Homo sapiens), 0%; in assay [2], 0%; in assay [3], 0%; in assay [4] it was 0%; in assay [5] it was 0%. Also, the inhibition in assay [6] and in assay [7] was 0% in each case.

Regarding `Nc1ncc(-c2cccc3ncsc23)cc1-c1ccc2c(c1)CCNC2=O`, the figures for the inhibition in assay [3], in assay [5] and in assay [6] were 0%, 50% and 0%, respectively.

For the compound `Nc1ncc(-c2cccc([N+](=O)[O-])c2F)cc1-c1ccc2c(c1)CCNC2=O`, the inhibition in assay [6] stood at 0%.

On to `Nc1ncc(-c2ccc(NS(=O)(=O)C3CC3)cc2OC2CCCCC2)cc1-c1ccc2c(c1)CCNC2=O`, for which the inhibition in assay [1] is more than 90%; with MAP4K2 (Homo sapiens), more than 90%; in assay [2] it was 0%; in assay [4], 0%; in assay [7], 0%.

For the compound `Nc1ncc(-c2ccc(NS(=O)(=O)C3CC3)cc2F)cc1-c1ccc2c(c1)CCNC2=O`, the inhibition was 0% in assay [1]; more than 90% in the assay on MAP4K2 (Homo sapiens); 0% in assay [2]; 0% in assay [4]; 0% in assay [6]; 0% in assay [7].

On to `CN(C1CC1)S(=O)(=O)c1ccc(-c2cnc(N)c(-c3ccc4c(c3)CCNC4=O)c2)c(F)c1`, for which the results for the inhibition in assay [3], in assay [5] and in assay [6] were 0%, 50% and 0%, respectively.
